These results are taken from patent US6395730B1, “Potassium channel inhibitors” (Icagen, Inc., priority 1998, dated 2002).

For one test, the target named is T1, human Kv1.5 (Homo sapiens, UniProt P22460).
T1 construct: expressed in transfected cells
The test can be described thus: 86Rb efflux assay. The class given is cell-based. The note with it: inhibition of 86Rb efflux through Kv1.5 potassium channels expressed in CHO cells; 70 mM KCl depolarization; read-out: IC50 (μM) (flux). Here is the method:
Cells stably transfected with cDNA for human Kv1.5 (in pcDNA3 vector) were grown as confluent monolayers in 96 well tissue culture plates in MEM alpha with 10% heat inactivated fetal bovine serum and 400 μg/ml G418. Cells were incubated overnight in growth media containing 1 μCi/ml ^86Rb to permit intracellular uptake of the isotope. At the end of the incubation period, the ^86Rb solution is aspirated and the cells washed three times with Earls Balanced Salt Solution (EBSS) which contains (in mM) 132 NaCl, 5.4 KCl, 1.8 CaCl2, 0.8 mM MgCl2 10 mM HEPES and 5 mM glucose. The cells were then preincubated for 10 minutes at room temperature in 100 μl/well of EBSS or EBSS containing test compounds. At the end of this period the wells were aspirated and to each well is then added 100 μl of a modified EBSS solution containing 70 mM KCl (NaCl replaced by KCl) and the compound to be tested. The high KCl concentration is utilized to depolarize the cells to membrane potentials that will activate Kv1.5 channels. After a 1 minute incubation in 70 mM KCl EBSS plus test compound, the solution is removed and placed into the appropriate well of a 96 well counting plate for analysis. Finally 100 μl of 0.1% sodium dodecyl sulfate in EBSS is added to each well to lyse the cells. The lysate is taken for analysis to determine final cell content of ^86Rb. Samples were counted in a Wallac Microbeta liquid scintillation counter by Cerenkov emission. Efflux is expressed as a percentage of the initial cell content of ^86Rb.
The testing results of selective compounds from Tables 1 and 2 using this assay are reported in Table 3 (flux) as the potency for inhibition of ^86Rb efflux through Kv1.5 potassium channels expressed in CHO cells by compounds of the invention.

In test [1] the target is Kv1.5 potassium channel subunit (Homo sapiens, UniProt P22460). The test can be described thus: Electrophysiological studies (whole cell patch clamp). Type of test: cell-based. The note with it: inhibition of Kv1.5 potassium currents, Chinese hamster ovary cells stably expressing Kv1.5. Here is the method:
Electrophysiological recordings of potassium currents in Chinese hamster ovary cells stably expressing the gene construct for the Kv1.5 potassium channel subunit were performed using the whole cell configuration of the patch clamp technique (Hamill et al., Pflugers Archiv 391:85, 1981). Cell lines expressing Kv1.5 were prepared using standard techniques known to those skilled in the art. Cells were plated on glass coverslips at a density of 2×10^4 cells/coverslip and used within 24-48 hours. Solutions used for electrophysiological recordings were as follows. Extracellular bathing solutions contained (in mM) 132 NaCl, 5.4 KCl, 1.8 CaCl2, 0.8 MgCl2, 10 HEPES, 5 glucose at pH 7.3. Electrode pipette solutions for measuring Kv1.5 contain (in mM) 100 KF, 40 KCl, 5 NaCl, 2 MgCl2, 5 mM EGTA, 10 mM HEPES and 5 glucose at pH 7.4, 295 mOsm. The coverslips were placed in a small chamber (volume ˜200 μl) on the mechanical stage of an inverted microscope and […] (2 ml/min) with extracellular recording solution. Drug application is achieved via a series of narrow-bore glass capillary tubes (inner diameter ˜100 μm) positioned approximately 200 μm from the cell.
The testing results of selective compounds from Tables 1 and 2 using this assay are reported in Table 3 (EP) as the potency for inhibition of Kv1.5 potassium currents by compounds of the invention.

T1 sequence (P22460 whole entry): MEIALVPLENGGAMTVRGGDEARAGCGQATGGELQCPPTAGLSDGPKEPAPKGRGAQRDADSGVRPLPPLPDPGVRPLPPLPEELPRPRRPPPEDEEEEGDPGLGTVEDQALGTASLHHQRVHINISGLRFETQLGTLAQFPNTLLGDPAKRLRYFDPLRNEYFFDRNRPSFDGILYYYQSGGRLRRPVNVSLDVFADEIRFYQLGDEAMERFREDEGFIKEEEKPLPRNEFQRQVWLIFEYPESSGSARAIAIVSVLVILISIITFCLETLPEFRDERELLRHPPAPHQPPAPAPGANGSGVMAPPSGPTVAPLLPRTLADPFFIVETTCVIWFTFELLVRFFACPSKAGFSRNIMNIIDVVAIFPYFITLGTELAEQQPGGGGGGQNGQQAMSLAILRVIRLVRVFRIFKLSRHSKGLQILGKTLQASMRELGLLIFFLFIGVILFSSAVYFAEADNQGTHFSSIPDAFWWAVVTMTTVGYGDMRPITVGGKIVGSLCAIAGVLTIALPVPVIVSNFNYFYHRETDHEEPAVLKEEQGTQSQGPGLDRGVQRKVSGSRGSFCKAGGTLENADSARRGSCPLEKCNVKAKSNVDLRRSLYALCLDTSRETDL
Kv1.5 potassium channel subunit, sequence (P22460 whole entry): as above

`CCc1ccc(C2SCC(=O)N2CCc2ccc(OC)cc2)s1` (centres unmarked) [67 of Table 1]: the values for the IC50 (at human Kv1.5; in test [1]) were 1.3 µM and 0.7 µM, respectively.

On to `COc1cccc(CCN2C(=O)CSC2c2ccc3c(c2)OCO3)c1` (centres unmarked) [8 of Table 1], for which the results for the IC50 (on human Kv1.5; in test [1]) were 9.9 µM and 1.2 µM, respectively.

For `COc1ccc(CN2C(=O)CSC2c2cccc(OC)c2)cc1` (centres unmarked) [36 of Table 1], the IC50 at human Kv1.5 is 30 µM; in test [1], 4.7 µM.

`COc1ccc(CCN2C(=O)CSC2c2ccc(C)c(C)c2)cc1` (centres unmarked) [52 of Table 1]: the IC50 is 0.9 µM at human Kv1.5 and 0.2 µM in test [1].

`COc1ccc(CCN2C(=O)CCSC2c2ccc3c(c2)OCO3)cc1` (centres unmarked) [18 of Table 2]: the half-inhibitory concentration (IC50) at human Kv1.5 was found to be 1.5 µM; in test [1], 1 µM.

Consider `COc1ccc(CCN2C(=O)CSC2c2ccc(F)c(F)c2)cc1` (centres unmarked) [23 of Table 1], for which the IC50 at human Kv1.5 came out at 14.5 µM.

`COc1ccc(CCN2C(=O)C(C)SC2c2ccc3c(c2)OCCO3)cc1` (centres unmarked) [45 of Table 1]: in test [1], half-maximal inhibition (IC50) required 0.6 µM.

For the compound `COc1ccc(CCN2C(=O)CCSC2c2ccc(C)c(C)c2)cc1` (centres unmarked) [2 of Table 2], the IC50 at human Kv1.5 was found to be 1.5 µM; in test [1], 0.3 µM.

In the case of `Cc1ccc(C2SCC(=O)N2CCCCc2ccccc2)cc1C` (centres unmarked) [60 of Table 1], the IC50 on human Kv1.5 is 6.9 µM; in test [1], 0.3 µM.

For the compound `COc1ccc(CCN2C(=O)CSC2c2cccc(OC)c2)cc1` (centres unmarked) [1 of Table 1], the IC50 on human Kv1.5 is 3.9 µM; in test [1] it was 0.6 µM.

As to `CCCCCCN1C(=O)CSC1c1cccc(OC)c1` (centres unmarked) [77 of Table 1], the IC50 worked out at 10.5 µM at human Kv1.5 and 1.6 µM in test [1].

Regarding `COc1ccc(CCN2C(=O)CSC2c2ccc(OC)c(OC)c2)cc1` (centres unmarked) [5 of Table 1], the IC50 was found to be 29.6 µM at human Kv1.5 and 6 µM in test [1].

Turning to `Cc1ccc(C2SCC(=O)N2CC#Cc2ccccc2)cc1C` (centres unmarked) [82 of Table 1], the IC50 at human Kv1.5 turned out to be 4.7 µM.
